Test results taken from US20240327334A1, “Covalent Inhibitors As Antiviral Agents” (Enanta Pharmaceuticals, Inc., priority 2022, published 2024).

These compounds were tested against SARS-CoV-2 Papain-like (PLpro) protease (Severe acute respiratory syndrome coronavirus 2, UniProt P0DTD1) (assay: SARS-CoV-2 Papain-like (PLpro) protease biochemical enzyme inhibition assay (ubiquitin-fluorophore substrate, Ub-R110)). Settings: Ub-R110 substrate; run in duplicate; read-out: PLpro IC50.

Row | Compound | IC50 [nM]
1 | C=C(C)c1ccc(-c2cc(C3(NC(=O)c4ccccc4CNC(=O)[C@H]4CCN(C#N)C4)CC3)c3ccccc3c2)s1 [Example 418] | < 100
2 | N#CCNC(=O)C(=O)NCc1ccc(C#N)cc1C(=O)NC1(c2ccc(F)c3ccccc23)CC1 [Example 55] | < 100
3 | N#CCNC(=O)C(=O)NCc1ccccc1C(=O)NC1(c2ccc3c4c(cccc24)CC3)CC1 [Example 439] | < 100
4 | COc1cc(C2(NC(=O)c3ccccc3CNC(=O)C(=O)NC/C=C/c3ncccn3)CC2)cc2cn(C3CC3)nc12 [Example 577] | < 100
5 | Cc1nn(C2CC2)c(C)c1-c1cc(Cl)cc(C2(NC(=O)c3ccccc3CNC(=O)C(=O)NCC#Cc3nccs3)CC2)c1 [Example 132] | < 100
6 | NC(=O)C(=O)NCc1ccccc1C(=O)NC1(c2cc(-c3cnn(C4CC4)c3)cc3ccccc23)CC1 [Example 321] | < 100
7 | CC(C)Oc1cccnc1C#CCNC(=O)C(=O)NCc1ccccc1C(=O)NC1(c2cc(F)cc(-c3cnn(C4CC4)c3)c2)CC1 [Example 267] | < 100
8 | Cn1ccnc1C#CCNC(=O)C(=O)NCc1ccccc1C(=O)NC1(c2ccc3ccccc3c2)CC1 [Example 197] | < 100
9 | C[C@@H](C#Cc1nccs1)NC(=O)C(=O)NCc1ccccc1C(=O)NC1(c2ccc3nn(CC(F)(F)F)cc3c2)CC1 [Example 323] | < 100
10 | O=C(NCC#CC(=O)N1CCCO1)C(=O)NCc1ccccc1C(=O)NC1(c2cccc3ccccc23)CC1 [Example 526] | < 100
11 | C[C@@H](C#Cc1nccs1)NC(=O)C(=O)NCc1ccccc1C(=O)NC1(c2ccc3ccccc3c2)CC1 [Example 183] | < 100
12 | N#CCNC(=O)C(=O)NCc1ccccc1C(=O)NC1(c2cccc(-c3ccc(F)cc3)c2)CC1 [Example 543] | 100 to 1000
13 | C#CCNC(=O)C(=O)NCc1ccccc1C(=O)NC1(c2ccc(OC)c(-c3cnn(C4CC4)c3)c2)CC1 [Example 245] | < 100
14 | COC(=O)/C=C/CNC(=O)C(=O)NCc1ccccc1C(=O)N[C@H](C)c1cc(-c2cnn(C3CC3)c2)cc(C(F)(F)F)c1 [Example 459] | < 100
15 | C[C@@H](C#Cc1nccs1)NC(=O)C(=O)NCc1ccccc1C(=O)NC1(c2cc(F)cc(-c3cnn(C4CC4)c3)c2)CC1 [Example 185] | < 100
16 | C#CCNC(=O)C(=O)NCc1ccccc1C(=O)NC1(c2ccc(F)c(Br)c2)CC1 [Example 227] | < 100
17 | CN1C[C@H](F)CC1COc1ccc(CNC(=O)C(=O)NCC#N)c(C(=O)NC2(c3cc(-c4cnn(C5CC5)c4)cc4ccccc34)CC2)c1 (stereo partly drawn) [Example 322] | < 100
18 | O=C(NCC#Cc1nccs1)C(=O)NCc1ccccc1C(=O)NC1(c2cccc3ccccc23)CC1 [Example 160] | < 100
19 | N#CCNC(=O)C(=O)NCc1ccccc1C(=O)NC1(c2cc(-c3ccn(C4CC4)n3)cc(F)c2F)CC1 [Example 306] | < 100
20 | C#CCNC(=O)C(=O)NCc1ccccc1C(=O)NC1(c2cc(Cl)cc(-c3c(C)nn(C4CC4)c3C)c2)CC1 [Example 131] | < 100
21 | C#CCNC(=O)C(=O)NCc1ccccc1C(=O)NC1(c2cc(-c3cnn(C4CC4)c3)cc(C(F)(F)F)c2)CC1 [Example 471] | < 100

What follows are compounds tested on SARS-CoV-2 replicon (assay: microbe, parasite or virus in culture). Settings: Severe acute respiratory syndrome coronavirus 2, Huh-7.
Format: cell-based

Row | Compound | EC50 [nM]
22 | C=C(C)c1ccc(-c2cc(C3(NC(=O)c4ccccc4CNC(=O)[C@H]4CCN(C#N)C4)CC3)c3ccccc3c2)s1 [Example 418] | < 1000
23 | N#CCNC(=O)C(=O)NCc1ccc(C#N)cc1C(=O)NC1(c2ccc(F)c3ccccc23)CC1 [Example 55] | 1000 to 10000
24 | N#CCNC(=O)C(=O)NCc1ccccc1C(=O)NC1(c2ccc3c4c(cccc24)CC3)CC1 [Example 439] | < 1000
25 | COc1cc(C2(NC(=O)c3ccccc3CNC(=O)C(=O)NC/C=C/c3ncccn3)CC2)cc2cn(C3CC3)nc12 [Example 577] | < 1000
26 | Cc1nn(C2CC2)c(C)c1-c1cc(Cl)cc(C2(NC(=O)c3ccccc3CNC(=O)C(=O)NCC#Cc3nccs3)CC2)c1 [Example 132] | < 1000
27 | NC(=O)C(=O)NCc1ccccc1C(=O)NC1(c2cc(-c3cnn(C4CC4)c3)cc3ccccc23)CC1 [Example 321] | 1000 to 10000
28 | CC(C)Oc1cccnc1C#CCNC(=O)C(=O)NCc1ccccc1C(=O)NC1(c2cc(F)cc(-c3cnn(C4CC4)c3)c2)CC1 [Example 267] | < 1000
29 | Cn1ccnc1C#CCNC(=O)C(=O)NCc1ccccc1C(=O)NC1(c2ccc3ccccc3c2)CC1 [Example 197] | < 1000
30 | C[C@@H](C#Cc1nccs1)NC(=O)C(=O)NCc1ccccc1C(=O)NC1(c2ccc3nn(CC(F)(F)F)cc3c2)CC1 [Example 323] | < 1000
31 | O=C(NCC#CC(=O)N1CCCO1)C(=O)NCc1ccccc1C(=O)NC1(c2cccc3ccccc23)CC1 [Example 526] | < 1000
32 | C[C@@H](C#Cc1nccs1)NC(=O)C(=O)NCc1ccccc1C(=O)NC1(c2ccc3ccccc3c2)CC1 [Example 183] | < 1000
33 | N#CCNC(=O)C(=O)NCc1ccccc1C(=O)NC1(c2cccc(-c3ccc(F)cc3)c2)CC1 [Example 543] | > 10000
34 | C#CCNC(=O)C(=O)NCc1ccccc1C(=O)NC1(c2ccc(OC)c(-c3cnn(C4CC4)c3)c2)CC1 [Example 245] | < 1000
35 | COC(=O)/C=C/CNC(=O)C(=O)NCc1ccccc1C(=O)N[C@H](C)c1cc(-c2cnn(C3CC3)c2)cc(C(F)(F)F)c1 [Example 459] | 1000 to 10000
36 | C[C@@H](C#Cc1nccs1)NC(=O)C(=O)NCc1ccccc1C(=O)NC1(c2cc(F)cc(-c3cnn(C4CC4)c3)c2)CC1 [Example 185] | < 1000
37 | C#CCNC(=O)C(=O)NCc1ccccc1C(=O)NC1(c2ccc(F)c(Br)c2)CC1 [Example 227] | < 1000
38 | CN1C[C@H](F)CC1COc1ccc(CNC(=O)C(=O)NCC#N)c(C(=O)NC2(c3cc(-c4cnn(C5CC5)c4)cc4ccccc34)CC2)c1 (stereo partly drawn) [Example 322] | < 1000
39 | O=C(NCC#Cc1nccs1)C(=O)NCc1ccccc1C(=O)NC1(c2cccc3ccccc23)CC1 [Example 160] | < 1000
40 | N#CCNC(=O)C(=O)NCc1ccccc1C(=O)NC1(c2cc(-c3ccn(C4CC4)n3)cc(F)c2F)CC1 [Example 306] | < 1000
41 | C#CCNC(=O)C(=O)NCc1ccccc1C(=O)NC1(c2cc(Cl)cc(-c3c(C)nn(C4CC4)c3C)c2)CC1 [Example 131] | < 1000
42 | C#CCNC(=O)C(=O)NCc1ccccc1C(=O)NC1(c2cc(-c3cnn(C4CC4)c3)cc(C(F)(F)F)c2)CC1 [Example 471] | < 1000
